Common to all, as to type: cell-based
For one assay, the system named is H23 cells. Put plainly: Cell viability assay (CELLTITER-GLO), H23 cells. As to conditions: Table 4; 3 days. In outline: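 H23 cells in RPMI 1640 with 10% FBS, 4,000 cells/well, exposed to compound or DMSO for 3 days at 37° C, 5% CO2. Viability read by CellTiter-Glo luminescence after 10 min. IC50 reported in potency bins.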
For a further assay, the system named is H358 cells. Description: Cell viability assay (CELLTITER-GLO), H358 cells. To be noted: Table 4; 3 days. In short, it runs like this: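 H358 cells (RPMI 1640, 10% FBS), 4,000 per well, exposed to compound for 3 days at 37 °C, 5% CO2; viability by CellTiter-Glo luminescence. Single-dose viability as % DMSO at 10 or 1 μM, binned A (<10%) to D (≥50%); IC50 binned A (≤1 μM) to D (>10 μM).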

For the next assay, the system named is MOLM-13 cells. Description: Cell viability assay (CELLTITER-GLO), MOLM-13 cells. As to conditions: Homo sapiens, MOLM-13, 72 h; Table 2; compound at 10 μM, 3 days; read-out: Effect on MOLM-13 cell viability (% DMSO). In outline:
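MV-4-11 and MOLM-13 cells in RPMI 1640/10% FBS were seeded at 4,000 cells/well and exposed to compound (10 μM or 1 μM) or DMSO for 3 days at 37 °C, 5% CO2. CellTiter-Glo luminescence gave viability as % DMSO, binned into ranges A (<10%) through D (≥50%).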

Data on 14 compounds can be found in patent US12630547B2, “RAS protein degraders, pharmaceutical compositions thereof, and their therapeutic applications” (BioTheryX, Inc., priority 2019, dated 2026).

On to `CCC(=O)Oc1cccc(F)c1-c1c(Cl)cc2c3c(cnc2c1F)N(CCCCCCCN1CCC(c2cc(F)cc4c2CN(C2CCC(=O)NC2=O)C4=O)CC1)C(=O)[C@H]1CN(C(=O)CC)[C@H](C)CN31` (stereo partly drawn) [Compound 95, 2-((2R,4aR)-11-Chloro-6-(7-(4-(2-(2,6-dioxopiperidin-3-yl)-6-fluoro-1-oxoisoindolin-4-yl)piperidin-1-yl)heptyl)-9-fluoro-2-methyl-5-oxo-3-propionyl-2,3,4,4a,5,6-hexahydro-1H-pyrazino[1′,2′:4,5]pyrazino[2,3-c]quinolin-10-yl)-3-fluorophenyl propionate], for which, in the assay on H23 cells, the “Inhibition of H23 cells, IC50 (class)” value is “B′”. Besides, the “Inhibition of H358 cells, IC50 (class)” value in the assay on H358 cells is “B′”. Further, the viability at 10 µM with MOLM-13 cells was less than 10%.
For the compound `C/C=C(\Cl)C(=O)N1CCN(c2ncnc3c(F)c(-c4c(F)cccc4OCCCCCCCN4CCC(c5cc(F)cc6c5CN(C5CCC(=O)NC5=O)C6=O)CC4)c(Cl)cc23)CC1` (stereo not drawn) [Compound 96, (Z)-3-(4-(1-(7-(2-(6-Chloro-4-(4-(2-chlorobut-2-enoyl)piperazin-1-yl)-8-fluoroquinazolin-7-yl)-3-fluorophenoxy)heptyl)piperidin-4-yl)-6-fluoro-1-oxoisoindolin-2-yl)piperidine-2,6-dione], in the assay with H23 cells, the “Inhibition of H23 cells, IC50 (class)” value is “B′”. Besides, in the assay on H358 cells, the “Inhibition of H358 cells, IC50 (class)” value is “B′”. Besides, in the assay on MOLM-13 cells, the viability at 10 µM is less than 10%.
As for `CC(C)/C=C(\Cl)C(=O)N1CCN(c2ncnc3c(F)c(-c4c(F)cccc4OCCCCCCCN4CCC(c5cc(F)cc6c5CN(C5CCC(=O)NC5=O)C6=O)CC4)c(Cl)cc23)CC1` (stereo not drawn) [Compound 97, (Z)-3-(4-(1-(7-(2-(6-Chloro-4-(4-(2-chloro-4-methylpent-2-enoyl)piperazin-1-yl)-8-fluoroquinazolin-7-yl)-3-fluorophenoxy)heptyl)piperidin-4-yl)-6-fluoro-1-oxoisoindolin-2-yl)piperidine-2,6-dione], in the assay on H23 cells, the “Inhibition of H23 cells, IC50 (class)” value is “B′”. Moreover, the “Inhibition of H358 cells, IC50 (class)” value in the assay on H358 cells is listed as “B′”. For the same compound, the viability at 10 µM in the assay with MOLM-13 cells was less than 10%.
As to `CC/C=C(\Cl)C(=O)N1CCN(c2ncnc3c(F)c(-c4c(F)cccc4OCCCCCCCN4CCC(c5cc(F)cc6c5CN(C5CCC(=O)NC5=O)C6=O)CC4)c(Cl)cc23)CC1` (stereo not drawn) [Compound 98, (Z)-3-(4-(1-(7-(2-(6-Chloro-4-(4-(2-chloropent-2-enoyl)piperazin-1-yl)-8-fluoroquinazolin-7-yl)-3-fluorophenoxy)heptyl)piperidin-4-yl)-6-fluoro-1-oxoisoindolin-2-yl)piperidine-2,6-dione], in the assay on H23 cells, the “Inhibition of H23 cells, IC50 (class)” value is listed as “B′”. Besides, the “Inhibition of H358 cells, IC50 (class)” value in the assay with H358 cells is recorded as “B′”. In addition, the viability at 10 µM in the assay on MOLM-13 cells was in the range of 25 to 50%.
Turning to `CC(=O)N1CCN(c2ncnc3c(F)c(-c4c(F)cccc4OCCCCCCCN4CCC(c5cc(F)cc6c5CN(C5CCC(=O)NC5=O)C6=O)CC4)c(Cl)cc23)CC1` (stereo not drawn) [Compound 99, 3-(4-(1-(7-(2-(4-(4-Acetylpiperazin-1-yl)-6-chloro-8-fluoroquinazolin-7-yl)-3-fluorophenoxy)heptyl)piperidin-4-yl)-6-fluoro-1-oxoisoindolin-2-yl)piperidine-2,6-dione], the “Inhibition of H23 cells, IC50 (class)” value with H23 cells is listed as “B′”. The “Inhibition of H358 cells, IC50 (class)” value with H358 cells was “B′”. Besides, in the assay on MOLM-13 cells, the viability at 10 µM is less than 10%.
For `C=C(Cl)C(=O)N1CCN(c2nc(=O)n(-c3ccccc3C(C)C)c3nc(-c4c(F)cccc4OCCCCCCCN4CCC(c5cc(F)cc6c5CN(C5CCC(=O)NC5=O)C6=O)CC4)c(F)cc23)[C@@H](C)C1` (stereo partly drawn) [Compound 100, 3-(4-(1-(7-(2-(4-((S)-4-(2-Chloroacryloyl)-2-methylpiperazin-1-yl)-6-fluoro-1-(2-isopropylphenyl)-2-oxo-1,2-dihydropyrido[2,3-d]pyrimidin-7-yl)-3-fluorophenoxy)heptyl)piperidin-4-yl)-6-fluoro-1-oxoisoindolin-2-yl)piperidine-2,6-dione], the “Inhibition of H23 cells, IC50 (class)” value in the assay with H23 cells was “A′”. Besides, the “Inhibition of H358 cells, IC50 (class)” value in the assay with H358 cells is given as “A′”. Further, in the assay with MOLM-13 cells, the viability at 10 µM was less than 10%.
Take `C=C(Cl)C(=O)N1CCN(c2ncnc3c(F)c(-c4c(F)cccc4OCCOCc4ccc(COCCN5CCC(c6cc(F)cc7c6CN(C6CCC(=O)NC6=O)C7=O)CC5)cc4)c(Cl)cc23)CC1` (stereo not drawn) [Compound 101, 3-(4-(1-(2-((4-((2-(2-(6-Chloro-4-(4-(2-chloroacryloyl)piperazin-1-yl)-8-fluoroquinazolin-7-yl)-3-fluorophenoxy)ethoxy)methyl)benzyl)oxy)ethyl)piperidin-4-yl)-6-fluoro-1-oxoisoindolin-2-yl)piperidine-2,6-dione]: the “Inhibition of H23 cells, IC50 (class)” value with H23 cells was “A′”. In the assay on H358 cells, the “Inhibition of H358 cells, IC50 (class)” value was “A′”. Moreover, the viability at 10 µM in the assay on MOLM-13 cells is less than 10%.
Take `C=C(Cl)C(=O)N1CCN(c2ncnc3c(F)c(-c4c(F)cccc4OCCCCCCCN4CCC(c5cc(F)cc6c5CN(C5CCC(=O)NC5=O)C6=O)CC4)c(Cl)cc23)C[C@H]1CC#N` (stereo partly drawn) [Compound 102, 2-((2R)-4-(6-Chloro-7-(2-((7-(4-(2-(2,6-dioxopiperidin-3-yl)-6-fluoro-1-oxoisoindolin-4-yl)piperidin-1-yl)heptyl)oxy)-6-fluorophenyl)-8-fluoroquinazolin-4-yl)-1-(2-chloroacryloyl)-piperazin-2-yl)acetonitrile]: the “Inhibition of H23 cells, IC50 (class)” value in the assay on H23 cells is listed as “A′”. In addition, in the assay with H358 cells, the “Inhibition of H358 cells, IC50 (class)” value is given as “A′”. In addition, in the assay on MOLM-13 cells, the viability at 10 µM is less than 10%.
Turning to `C=C(Cl)C(=O)N1CCN(c2ncnc3c(F)c(-c4c(F)cccc4OCCCCCN4CCC(c5cc(F)cc6c5CN(C5CCC(=O)NC5=O)C6=O)CC4)c(Cl)cc23)CC1` (stereo not drawn) [Compound 103, 3-(4-(1-(5-(2-(6-Chloro-4-(4-(2-chloroacryloyl)piperazin-1-yl)-8-fluoroquinazolin-7-yl)-3-fluorophenoxy)pentyl)piperidin-4-yl)-6-fluoro-1-oxoisoindolin-2-yl)piperidine-2,6-dione], in the assay with H23 cells, the “Inhibition of H23 cells, IC50 (class)” value was “A′”. The “Inhibition of H358 cells, IC50 (class)” value in the assay with H358 cells was “A′”. Further, in the assay with MOLM-13 cells, the viability at 10 µM is less than 10%.
With `C=C(Cl)C(=O)N1C[C@@H]2C(=O)N(C)c3cnc4c(F)c(-c5c(F)cccc5OCCCCCCCN5CCC(c6cc(F)cc7c6CN(C6CCC(=O)NC6=O)C7=O)CC5)c(Cl)cc4c3N2C[C@H]1C` (stereo partly drawn) [Compound 104, 3-(4-(1-(7-(2-((2R,4aR)-11-Chloro-3-(2-chloroacryloyl)-9-fluoro-2,6-dimethyl-5-oxo-2,3,4,4a,5,6-hexahydro-1H-pyrazino[1′,2′:4,5]pyrazino[2,3-c]quinolin-10-yl)-3-fluorophenoxy)-heptyl)piperidin-4-yl)-6-fluoro-1-oxoisoindolin-2-yl)piperidine-2,6-dione], in the assay on H23 cells, the “Inhibition of H23 cells, IC50 (class)” value is recorded as “B′”. For the same compound, in the assay with H358 cells, the “Inhibition of H358 cells, IC50 (class)” value is “B′”. The viability at 10 µM in the assay with MOLM-13 cells is less than 10%.
Regarding `C=C(Cl)C(=O)N1CCN(c2ncnc3cc(-c4c(F)cccc4OCCCCCCCN4CCC(c5cccc6c5CN(C5CCC(=O)NC5=O)C6=O)CC4)c(Cl)cc23)CC1` (stereo not drawn) [Compound 105, 3-(4-(1-(7-(2-(6-Chloro-4-(4-(2-chloroacryloyl)piperazin-1-yl)quinazolin-7-yl)-3-fluorophenoxy)heptyl)piperidin-4-yl)-1-oxoisoindolin-2-yl)piperidine-2,6-dione], in the assay with H23 cells, the “Inhibition of H23 cells, IC50 (class)” value is “A′”. Further, in the assay on H358 cells, the “Inhibition of H358 cells, IC50 (class)” value was “A′”. Also, in the assay on MOLM-13 cells, the viability at 10 µM was less than 10%.
Regarding `C=C(Cl)C(=O)N1CCN(c2ncnc3c(F)c(-c4c(F)cccc4OCCCCCCCN4CCC(c5cc6c(cc5F)C(=O)N(C5CCC(=O)NC5=O)C6)CC4)c(Cl)cc23)CC1` (stereo not drawn) [Compound 107, 3-(5-(1-(7-(2-(6-Chloro-4-(4-(2-chloroacryloyl)piperazin-1-yl)-8-fluoroquinazolin-7-yl)-3-fluorophenoxy)heptyl)piperidin-4-yl)-6-fluoro-1-oxoisoindolin-2-yl)piperidine-2,6-dione], the “Inhibition of H23 cells, IC50 (class)” value in the assay with H23 cells is recorded as “A′”. In addition, the “Inhibition of H358 cells, IC50 (class)” value in the assay with H358 cells is “A′”. The viability at 10 µM in the assay with MOLM-13 cells is less than 10%.
For `C=C(Cl)C(=O)N1CCN(c2nc(OC[C@@H]3CCCN3C)nc3c(F)c(-c4c(F)cccc4OCCCCCCCN4CCC(c5cc(F)cc6c5CN(C5CCC(=O)NC5=O)C6=O)CC4)c(Cl)cc23)CC1` (stereo partly drawn) [Compound 108, 3-(4-(1-(7-(2-(6-Chloro-4-(4-(2-chloroacryloyl)piperazin-1-yl)-8-fluoro-2-(((S)-1-methylpyrrolidin-2-yl)methoxy)quinazolin-7-yl)-3-fluorophenoxy)heptyl)piperidin-4-yl)-6-fluoro-1-oxoisoindolin-2-yl)piperidine-2,6-dione], the “Inhibition of H23 cells, IC50 (class)” value in the assay on H23 cells is on record as “A′”. Moreover, the “Inhibition of H358 cells, IC50 (class)” value with H358 cells was “A′”. The viability at 10 µM with MOLM-13 cells is less than 10%.
Turning to `CCC(=O)N1CCN(c2ncnc3c(F)c(-c4c(F)cccc4OCCOCc4ccc(COCCN5CCC(c6cc(F)cc7c6CN(C6CCC(=O)NC6=O)C7=O)CC5)cc4)c(Cl)cc23)CC1` (stereo not drawn) [Compound 109, 3-(4-(1-(2-((4-((2-(2-(6-Chloro-8-fluoro-4-(4-propionylpiperazin-1-yl)quinazolin-7-yl)-3-fluorophenoxy)ethoxy)methyl)benzyl)oxy)ethyl)piperidin-4-yl)-6-fluoro-1-oxoisoindolin-2-yl)piperidine-2,6-dione], the “Inhibition of H23 cells, IC50 (class)” value with H23 cells is recorded as “B′”. For the same compound, the “Inhibition of H358 cells, IC50 (class)” value in the assay with H358 cells is on record as “B′”. For the same compound, the viability at 10 µM with MOLM-13 cells was less than 10%.
